Our source for the DC50 values is patent US20260053932A1, “COMPOUNDS AND METHODS FOR THE TARGETED DEGRADATION OF ANDROGEN RECEPTOR AND ASSOCIATED METHODS OF USE” (Arvinas Operations, Inc., priority 2020, published 2026).

The test has as its system androgen receptor (AR) in LNCaP and/or VCaP cells. Put plainly: Androgen Receptor ELISA assay (AR degradation). The format is cell-based. The following applies: degradation of AR ELISA in LNCaP and/or VCaP cells; read-out: DC50 Code*. The procedure, abridged: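 VCaP cells grown ≥3 days, then treated 5 h with compound in media containing 1 nM R1881 (10× stock). Cells lysed and AR quantified by sandwich ELISA (mouse AR detection Ab, HRP anti-mouse, TMB). DC50 and Dmax derived from AR degradation.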

For orientation: DC50 means the concentration at which degradation of the target reaches its halfway point.

With `COCCN(CC1CCN(c2cnc(C(=O)N[C@H]3C(C)(C)[C@H](Oc4ccc(C#N)c(Cl)c4)C3(C)C)cn2)CC1)[C@H]1C[C@H](Oc2ccc3c(c2)C(=O)N(C2CCC(=O)NC2=O)C3=O)C1` (some centres unmarked) [compound 239, N-((1r,3r)-3-(3-chloro-4-cyanophenoxy)-2,2,4,4-tetramethylcyclobutyl)-5-(4-((((1r,3r)-3-((2-(2,6-dioxopiperidin-3-yl)-1,3-dioxoisoindolin-5-yl)oxy)cyclobutyl)(2-methoxyethyl)amino)methyl)piperidin-1-yl)pyrazine-2-carboxamide], the DC50 lay within 1 to 10 nM.
The value for `COc1cc(O[C@H]2C[C@H](N(CC(F)F)CC3CCN(c4ccc(C(=O)N[C@H]5C(C)(C)[C@H](Oc6cc(C)c(C#N)c(C)c6)C5(C)C)cc4)CC3)C2)cc2c1C(=O)N(C1CCC(=O)NC1=O)C2=O` (some centres unmarked) [compound 242, N-((1r,3r)-3-(4-cyano-3,5-dimethylphenoxy)-2,2,4,4-tetramethylcyclobutyl)-4-(4-(((2,2-difluoroethyl)((1r,3r)-3-((2-(2,6-dioxopiperidin-3-yl)-7-methoxy-1,3-dioxoisoindolin-5-yl)oxy)cyclobutyl)amino)methyl)piperidin-1-yl)benzamide] was 1 to 10 nM; that for `COc1cc(O[C@H]2C(C)(C)[C@H](NC(=O)c3ccc(N4CCC(CN5CCOCCCCOc6cc(cc7c6C(=O)N(C6CCC(=O)NC6=O)C7=O)O[C@H]6C[C@H]5C6)CC4)nn3)C2(C)C)ccc1C#N` (some centres unmarked) [compound 244] was 1 to 10 nM; that for `CC1(C)[C@H](NC(=O)c2ccc(N3CCC(CO[C@H]4C[C@H](Oc5ccc6c(c5)C(=O)N(C5CCC(=O)NC5=O)C6=O)C4)CC3)cc2)C(C)(C)[C@H]1Oc1ccc(C#N)c(Cl)c1` (some centres unmarked) [compound 245, N-((1r,3r)-3-(3-chloro-4-cyanophenoxy)-2,2,4,4-tetramethylcyclobutyl)-4-(4-(((1r,3r)-3-((2-(2,6-dioxopiperidin-3-yl)-1,3-dioxoisoindolin-5-yl)oxy)cyclobutoxy)methyl)piperidin-1-yl)benzamide] was 1 to 10 nM.
The value for `COc1cc(O[C@H]2C[C@H](N(CC(F)F)CC3CCN(c4cnc(C(=O)N[C@H]5C(C)(C)[C@H](Oc6cc(C)c(C#N)c(C)c6)C5(C)C)cn4)CC3)C2)cc2c1C(=O)N(C1CCC(=O)NC1=O)C2=O` (some centres unmarked) [compound 246, N-((1r,3r)-3-(4-cyano-3,5-dimethylphenoxy)-2,2,4,4-tetramethylcyclobutyl)-5-(4-(((2,2-difluoroethyl)((1r,3r)-3-((2-(2,6-dioxopiperidin-3-yl)-7-methoxy-1,3-dioxoisoindolin-5-yl)oxy)cyclobutyl)amino)methyl)piperidin-1-yl)pyrazine-2-carboxamide] was 10 to 100 nM.
